Measurements reported in US9518022B2, “Anti-HIV compounds” (priority 2014, dated 2016).

Columns and labels:
[1] = system: HIV-1 NL4-3 viral clone engineered to express Renilla luciferase in place of Nef; assay: microbe, parasite or virus in culture; type: cell-based; conditions: Human immunodeficiency virus 1, NL43, MT2, 96 h
Method: The present assay was used to screen candidate antiviral compounds by quantification of virus spread and production over several rounds of infection in vitro. MT-2, a HIV-1 permissive human T-cell line, was seeded in microtiter plates and was simultaneously treated with serially diluted compound and inoculated with a HIV-1 NL4-3 viral clone engineered to express Renilla luciferase in place of Nef. Following treatment, the culture was incubated for 96 hours. After the incubation, media was collected and used to estimate relative infectivity on the indicator cell line, TZM-bl. Additionally, viral spread was quantified by measuring luciferase activity via a commercially available luciferase substrate. In parallel, MT-2 cells were seeded and inoculated with mock virus in the presence of serially diluted compound. Compound toxicity was quantified 96 hours after treatment with AlamarBlue.
MT-2 (NIH Aids reagent program 237) cells were grown and maintained in an incubator at 37° C. with 5% CO2 using a basal medium of RPMI-1640 supplemented with 10% FBS. Cells were seeded in 100 μl at 2×10^4 cells/well in white walled 96-well microtiter plates. Candidate compounds were 3-fold serially diluted in the appropriate solvent. Solvent without compound was used as a no drug reference. Cells were inoculated at a multiplicity of 0.027 with an HIV-1 NL4-3 virus stock engineered to express Renilla luciferase in place of Nef. Diluted virus stock was first added to serially diluted compound. Compound and virus were delivered to cells in an equal volume (100 μl) and treated cultures were returned to the incubator for 96 hours. In parallel, plates for cytotoxicity estimates were prepared in the same way except cells were plated in clear walled 96-well microtiter plates and were mock infected.
At 96 hours post infection, 100 μl virus containing culture supernatant was collected from the treated and infected cultures and serially diluted in DMEM supplemented with 10% FBS, 1% sodium pyruvate, and 20 μg/ml DEAE dextran. One day prior, TZM-bl (ATCC PTA-5659) were cultured in basal medium of DMEM supplemented with 10% FBS and 1% sodium pyruvate and seeded at 7.5×10^3 cells/well in black walled 96-well microtiter plates. Diluted virus containing culture supernatant was transferred to TZM-bl cultures and incubated for 48 hours at 37° C. with 5% CO2. Infected TZM-bl cultures were fixed for 5 minutes with a 1% formaldehyde/0.2% gluteraldehyde/PBS solution then washed three times with PBS. Fixed cultures were incubated at 37° C. for 25 minutes with a 200 μg/ml MUG (4-Methylumbelliferyl β-D-[…])/DMEM solution. The reaction was stopped with an equal volume of 1M sodium carbonate and read at 360, 449 nm on fluorescence plate reader (Biotek).
At 96 hours post infection, 100 μl of culture supernatant was removed from the treated and infected cultures and EnduRen live cell substrate (Promega) was added at a final concentration 1.3 μg/ml. Cells were incubated for 1.5 hours at 37° C. with 5% CO2 then read on a luminescence plate reader (Biotek).
For all assays, data was imported into Accelrys Assay Explorer 3.3. In Assay Explorer, % inhibition (antiviral or cytotoxicity) was calculated using the solvent control as a reference by the following equation: 1−(SignalCompound/SignalReference). The % Inhibition and compound concentration data was fitted using the following 4-parameter logistic model (Assay Explorer model 42):
[formula] where X is compound concentration, Y is % inhibition, D is the maximum % Inhibition (constrained to 100%), C is IC50 value or inflection point, B is the hill slope, and A is the minimum % inhibition (constrained to 0%). The IC50 value is reported as the EC50 or CC50 depending on the assay endpoint. EC50 represents the effective concentration at which virus replication is inhibited by 50 percent. CC50 represents the concentration that results in the death of 50 percent of the host cells. […]

[2] = Cytotoxicity assay (AlamarBlue) in mock infected MT-2 cells; type: cell-based; conditions: human
How it was run: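 MT-2 cells at 2×10^4 cells/well, mock-infected, treated with 3-fold serial compound dilutions for 96 h at 37 °C. AlamarBlue added for 3 h, fluorescence read at 545/590 nm; % inhibition versus solvent control fitted to a 4-parameter logistic to give CC50.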

SMILES | EC50 [1] [µM] | CC50 at 96 h [2] [µM]
COc1cc(/C=C/C2NCCc3cc(OCc4ccccc4)c(OC)cc32)c(N(C)C)cc1OC (stereo not drawn) [CT, 2-[(E)-2-[6-(benzyloxy)-7-methoxy-1,2,3,4-tetrahydroisoquinolin-1-yl]ethenyl]-4,5-dimethoxy-N,N-dimethylaniline] | 0.2 | 8.9
COc1cc2c(cc1/C=C/C1NCCc3cc(OCc4ccccc4)c(OC)cc31)OCO2 (stereo not drawn) [CR, 6-(benzyloxy)-7-methoxy-1-[(E)-2-(6-methoxy-2H-1,3-benzodioxol-5-yl)ethenyl]-1,2,3,4-tetrahydroisoquinoline] | 0.12 | 3.3
COc1cc2c(cc1OCc1ccccc1)CCNC2/C=C/c1ccc2ccn(C(=O)OC(C)(C)C)c2c1 (stereo not drawn) [CS, tert-butyl 6-[(E)-2-[6-(benzyloxy)-7-methoxy-1,2,3,4-tetrahydroisoquinolin-1-yl]ethenyl]-1H-indole-1-carboxylate] | 0.912 | 6.15
COc1cc2c(cc1OCc1ccccc1)CCNC2/C=C/c1cccnc1N(C)C (stereo not drawn) [CU, 3-[(E)-2-[6-(benzyloxy)-7-methoxy-1,2,3,4-tetrahydroisoquinolin-1-yl]ethenyl]-N,N-dimethylpyridin-2-amine] | 1.4 | 19.9
COc1cc2c(cc1OCc1ccccc1)CCNC2/C=C/c1ccc2c(ccn2C(=O)OC(C)(C)C)c1 (stereo not drawn) [CM, tert-butyl 5-[(E)-2-[6-(benzyloxy)-7-methoxy-1,2,3,4-tetrahydroisoquinolin-1-yl]ethenyl]-1H-indole-1-carboxylate] | 1.3 | 10
COc1cc2c(cc1OCc1ccccc1)CCNC2/C=C/c1ccc2cn[nH]c2c1 (stereo not drawn) [BT, 6-(benzyloxy)-1-[(E)-2-(1H-indazol-6-yl)ethenyl]-7-methoxy-1,2,3,4-tetrahydroisoquinoline] | 0.613 | 7.98
COc1cc2c(cc1OCc1ccccc1)CCNC2/C=C/c1cccc2[nH]ccc12 (stereo not drawn) [CL, 6-(benzyloxy)-1-[(E)-2-(1H-indol-4-yl)ethenyl]-7-methoxy-1,2,3,4-tetrahydroisoquinoline] | 1.5 | 7.2
COc1cc2c(cc1OCc1ccccc1)CCNC2/C=C/c1cccc2ccn(C(=O)OC(C)(C)C)c12 (stereo not drawn) [CN, tert-butyl 7-[(E)-2-[6-(benzyloxy)-7-methoxy-1,2,3,4-tetrahydroisoquinolin-1-yl]ethenyl]-1H-indole-1-carboxylate] | 1.83 | 19.6
COc1cc2c(cc1/C=C/C1NCCc3cc(OCc4ccccc4)c(OC)cc31)OCCO2 (stereo not drawn) [CQ, 6-(benzyloxy)-7-methoxy-1-[(E)-2-(7-methoxy-2,3-dihydro-1,4-benzodioxin-6-yl)ethenyl]-1,2,3,4-tetrahydroisoquinoline] | 0.06 | 1.4
COc1cc2c(cc1OCc1ccccc1)CCNC2/C=C/c1cccc(S(C)(=O)=O)c1 (stereo not drawn) [CP, 6-(benzyloxy)-1-[(E)-2-(3-methanesulfonylphenyl)ethenyl]-7-methoxy-1,2,3,4-tetrahydroisoquinoline] | 3.07 | 20.6
COc1cc2c(cc1OCc1ccccc1)CCNC2/C=C/c1ccc(F)c(O)c1F (stereo not drawn) [CO, 3-[(E)-2-[6-(benzyloxy)-7-methoxy-1,2,3,4-tetrahydroisoquinolin-1-yl]ethenyl]-2,6-difluorophenol] | 6 | 10
COc1cc2c(cc1OCc1ccccc1)CCNC2/C=C/c1cccc2c1ccn2C(=O)OC(C)(C)C (stereo not drawn) [CK, tert-butyl 4-[(E)-2-[6-(benzyloxy)-7-methoxy-1,2,3,4-tetrahydroisoquinolin-1-yl]ethenyl]-1H-indole-1-carboxylate] | 0.805 | 5.99
